Test results published in a melting point compilation (Tetko et al.).

Compared with `CC(C)(C)OC(=O)NC1CCCCCC1=O` (configuration not stated), `CC(C)(C)OC(=O)N1C(=O)NC(C)(C)C1=O` is higher in melting point: 67 to 69 °C for the first, 152 to 154 °C for the second.

First: O=S(=O)(c1ccc(O)cc1)N1CCCCC1
Second: NNc1ccc(S(=O)(=O)N2CCOCC2)cn1
The melting point of the first is lower: 130 to 132 °C for the first, 179 to 181 °C for the second.

First: N#Cc1ccc(CBr)c(F)c1
Second: NC(=O)C(Cl)c1ccc(Br)cc1F (configuration not stated)
The melting point of the first is lower: 75 to 77 °C for the first, 101 to 103 °C for the second.

Compared with `Cc1cc(N(C)C)ccc1C#N`, `N#Cc1ccc(S(=O)(=O)Cl)cc1Cl` is lower in melting point: 59 to 61 °C for the first, 51 to 53 °C for the second.

Compared with `O=C(O)c1n[nH]c(=O)[nH]c1=O`, `Cc1cc(=O)[nH]c(C)c1C(=O)O` is higher in melting point: 224 to 226 °C for the first, 274 to 276 °C for the second.

First: COc1ccccc1CC(=O)NN
Second: COc1cccc(NCC(=O)NN)c1
The melting point of the first is higher: 112 to 114 °C for the first, 108 to 112 °C for the second.

First: CCOC(=O)c1c(CBr)oc2ccccc12
Second: COC(=O)c1cc(Cl)nc2ccccc12
The melting point of the first is lower: 84 to 86 °C for the first, 87 to 89 °C for the second.

First: O=C1CC2(Cc3ccccc3C2)C(=O)N1
Second: CC1(O)CCc2ccccc2C1 (configuration not stated)
The melting point of the first is higher: 173 to 175 °C for the first, 39 to 41 °C for the second.

First: CCC(C)(C#N)NC(=O)c1ccccc1 (configuration not stated)
Second: CN(CC(N)=S)C(=O)c1ccccc1
The melting point of the first is lower: 138 to 140 °C for the first, 149 to 151 °C for the second.

First: O=C(O)c1cn2ccccc2n1
Second: O=C(O)c1cncn1-c1ccccc1
The melting point of the first is higher: 242 to 244 °C for the first, 208 to 215 °C for the second.

First: CCOC(=O)C(=O)c1ccc2c(c1)OCCO2
Second: O=C(O)Cc1ccc2c(c1)CCO2
The melting point of the first is lower: 65 to 67 °C for the first, 102 to 104 °C for the second.

Compared with `Nn1c(S)nnc1-c1ccco1`, `N#Cc1c(S)nc2c(c1-c1ccco1)CCC2` is higher in melting point: 207 to 209 °C for the first, 279 to 281 °C for the second.

First: COc1cc(C=O)c([N+](=O)[O-])cc1OCC(=O)O
Second: CCOc1c(Cl)cc(C(=O)O)cc1OC
The melting point of the first is higher: 179 to 181 °C for the first, 116 to 118 °C for the second.

Compared with `O=C(c1cnc(Cl)c(Cl)c1)N1CCOCC1`, `O=C(O)c1nn(-c2ccc(Cl)cc2)c2c1CCCCC2` is higher in melting point: 78 to 80 °C for the first, 212 to 214 °C for the second.

Compared with `Cc1nn(-c2ccccc2)c(Cl)c1C(=O)O`, `O=C(O)c1cnn(-c2ccccc2)c1Br` is lower in melting point: 232 to 234 °C for the first, 214 to 216 °C for the second.

First: CN(C)C(=O)CN1CCNCC1
Second: C1CCc2nnc(CN3CCNCC3)n2CC1
The melting point of the first is lower: 35 to 37 °C for the first, 158 to 162 °C for the second.

First: O=[N+]([O-])c1c(F)cccc1S(=O)(=O)Cl
Second: CS(=O)(=O)c1ccccc1Br
The melting point of the first is lower: 52 to 54 °C for the first, 107 to 109 °C for the second.

Compared with `Nc1c(F)cccc1Oc1ccccc1`, `NC(c1ccccc1)c1ccncc1` (configuration not stated) is lower in melting point: 51 to 53 °C for the first, 40 to 42 °C for the second.

Compared with `Cc1ccc(CNC(=S)Nc2ccccc2)cc1`, `NNC(=O)c1ccc(CSc2nc3ccccc3[nH]2)cc1` is lower in melting point: 147 to 149 °C for the first, 64 to 66 °C for the second.

First: CCOC=C1C(=O)N(c2ccccn2)C(=O)c2ccccc21
Second: Cc1c(C(=O)O)cnc2ccccc12
The melting point of the first is lower: 231 to 233 °C for the first, 254 to 256 °C for the second.

First: NC(=O)N1CCc2ccccc2C1
Second: O=C(O)c1ccc(N2CCCc3ccccc32)cc1
The melting point of the first is lower: 170 to 172 °C for the first, 214 to 216 °C for the second.

First: CC(C)n1c(S)nc2ccccc21
Second: OCCc1nc2ccccc2s1
The melting point of the first is higher: 138 to 140 °C for the first, 40 to 44 °C for the second.

Compared with `COC(=O)c1ccn2c(I)cnc2c1`, `COC(=O)c1ccc2[nH]cc(C=O)c2c1` is higher in melting point: 209 to 211 °C for the first, 230 to 232 °C for the second.

Compared with `N#Cc1ccc(C(Cl)C(N)=O)cc1` (configuration not stated), `NC(=O)Cc1ccc(N)cc1` is higher in melting point: 114 to 116 °C for the first, 157 to 159 °C for the second.

Compared with `COc1ccc([N+](=O)[O-])c2cccnc12`, `COc1ccc(Cl)cc1-n1cc(S(=O)(=O)Cl)cn1` is lower in melting point: 145 to 147 °C for the first, 89 to 91 °C for the second.

Compared with `O=C(O)CCC(=O)c1ccc(Cl)s1`, `O=C(O)C(=O)Cc1cccs1` is higher in melting point: 122 to 124 °C for the first, 163 to 165 °C for the second.

First: Cc1ccc(-n2cccc2)c(C(=O)O)c1
Second: CCOc1c(F)cccc1C(=O)O
The melting point of the first is higher: 126 to 128 °C for the first, 43 to 45 °C for the second.

First: OCC1CSc2ccccc2O1 (configuration not stated)
Second: O=C(O)Cc1cc(-c2ccccc2)on1
The melting point of the first is lower: 89 to 91 °C for the first, 172 to 174 °C for the second.

First: O=Cc1cc(O)c(O)c(Br)c1
Second: Cc1cc(C(=O)O)sc1Br
The melting point of the first is higher: 219 to 221 °C for the first, 171 to 173 °C for the second.

First: COc1ccc2[nH]cc(C(=O)CC#N)c2c1
Second: O=C(O)CCNC(=O)c1c[nH]c2ccccc12
The melting point of the first is higher: 289 to 291 °C for the first, 157 to 159 °C for the second.

First: CC(=O)Nc1ccc(C2NC(=O)NC2=O)cc1 (configuration not stated)
Second: CC(=O)CC(=O)c1ccc(F)cc1
The melting point of the first is higher: 314 to 316 °C for the first, 48 to 52 °C for the second.

First: COc1ccc2ocnc2c1
Second: Oc1cccc(Oc2ncccn2)c1
The melting point of the first is lower: 75 to 77 °C for the first, 192 to 194 °C for the second.

First: OCc1nc2cc(C(F)(F)F)ccc2s1
Second: O=C(Nc1ccccc1Cl)OCC(F)(F)F
The melting point of the first is higher: 96 to 98 °C for the first, 44 to 46 °C for the second.

First: CCOC(=O)CS(N)(=O)=O
Second: O=C(O)CS(=O)(=O)Cc1cccc(Br)c1
The melting point of the first is lower: 62 to 64 °C for the first, 173 to 175 °C for the second.

First: CC1(C)NC(=O)c2ccccc2O1
Second: CC(C)(C(=O)O)c1ccccc1Cl
The melting point of the first is higher: 131 to 133 °C for the first, 111 to 113 °C for the second.

Compared with `ClCc1nc(-c2cc(Br)cs2)no1`, `OCc1noc(-c2ccc(F)cc2)n1` is higher in melting point: 56 to 58 °C for the first, 96 to 98 °C for the second.

Compared with `CC(C)C(Br)C(=O)NCc1ccco1` (configuration not stated), `CS(=O)(=O)Nc1ccccc1N` is higher in melting point: 91 to 93 °C for the first, 102 to 104 °C for the second.

First: Cc1sc(N)c(C#N)c1C
Second: CCc1cc(C#N)c(N)s1
The melting point of the first is higher: 134 to 136 °C for the first, 61 to 63 °C for the second.

Compared with `CN(C)S(=O)(=O)c1ccc(NC(=O)CCCl)cc1`, `CC(C)(C)NS(=O)(=O)Cc1cccc(N)c1` is lower in melting point: 159 to 161 °C for the first, 101 to 103 °C for the second.

First: O=C1CCc2c(Cl)cc(Br)cc21
Second: Nc1ccc(C(=O)NC2CC2)c(Cl)c1
The melting point of the first is lower: 124 to 126 °C for the first, 158 to 160 °C for the second.

First: O=C(O)CCCn1ccc2cc(Cl)ccc21
Second: O=C(O)CCNC(=O)c1ccc2ccccc2c1
The melting point of the first is lower: 79 to 81 °C for the first, 179 to 181 °C for the second.

Compared with `Oc1ccc(Oc2ccncc2)cc1`, `N#Cc1ccnc(Oc2ccccc2Cl)c1` is lower in melting point: 181 to 183 °C for the first, 79 to 81 °C for the second.

First: Nc1ccnc(Sc2ccccn2)c1
Second: Cn1ccnc1C(N)c1ccccc1 (configuration not stated)
The melting point of the first is higher: 99 to 101 °C for the first, 51 to 53 °C for the second.

Compared with `CCCc1ccc(-c2csc(N)n2)cc1`, `NC(=O)CCc1ccccc1` is lower in melting point: 115 to 117 °C for the first, 100 to 102 °C for the second.

Compared with `Cc1noc(N)c1S(N)(=O)=O`, `Cc1ccc(N)cc1S(C)(=O)=O` is lower in melting point: 131 to 133 °C for the first, 72 to 74 °C for the second.

First: CC(C(=O)O)=C1CCCC1
Second: CC(N)=C(C#N)C(=O)O
The melting point of the first is lower: 107 to 109 °C for the first, 319 to 321 °C for the second.

First: COc1cc(C)c(C(C)=O)cc1OC
Second: Cc1cc(C(=O)CCl)c(C)s1
The melting point of the first is higher: 73 to 75 °C for the first, 53 to 57 °C for the second.

First: CN(C)c1nccc(Cl)n1
Second: Cc1ncc(N)s1
The melting point of the first is lower: 79 to 81 °C for the first, 120 to 122 °C for the second.

First: CC(C)(C)c1cc(N)c(C#N)s1
Second: CCCOc1ccc(C=O)c(OCCC)c1
The melting point of the first is higher: 99 to 101 °C for the first, 58 to 60 °C for the second.

First: CN1CCN(C(=O)CO)CC1
Second: CCCCn1c(=O)[nH]c(=O)c2cc(C(=O)O)cnc21
The melting point of the first is lower: 56 to 58 °C for the first, 216 to 218 °C for the second.

Compared with `Cn1nc(C=O)cc1-c1cccs1`, `Nc1ccc(-n2cnnn2)cc1` is higher in melting point: 76 to 78 °C for the first, 140 to 142 °C for the second.

First: O=C(O)c1cccc(NC(=O)c2ccc(Br)o2)c1
Second: Cc1cc(C)cc(C2(C(=O)O)CC2)c1
The melting point of the first is higher: 229 to 231 °C for the first, 164 to 166 °C for the second.

Compared with `Cc1ncsc1C(=O)NN`, `CC(=O)NC(=O)CCl` is lower in melting point: 168 to 170 °C for the first, 113 to 115 °C for the second.

Work on `[N-]=[N+]=Nc1ccc(Cl)cc1Cl` yielded a melting point of 52 to 54 °C.
